MIC data for 30 compounds are collected here from patent US10934295B2, “Antimicrobials and methods of making and using same” (BIOVERSYS AG, priority 2016, dated 2021).

Experiment [1] has as its system Staphylococcus aureus (S. aureus) 11540 strain. The experiment can be described thus: standard microdilution assay, minimum inhibitory concentration (MIC). Format: cell-based. The protocol: (§1) The in vitro activity of the compounds of the present disclosure can be determined. Antimicrobial testing is typically performed to determine the minimum inhibitory concentration (MIC). Minimum inhibitory concentrations (MICs) are determined by the microdilution method in a final volume of 100 μl according to protocols outlined by The Clinical and Laboratory Standards Institute (CLSI). Performance standards for reference strains are assessed within the same experimental design to maintain quality control. See, for example, Clinical Laboratory Standards Institute: Methods for dilution antimicrobial susceptibility tests for bacteria that grow aerobically M7-A8. Approved Standard-Eighth Edition. Wayne, Pa.: CLSI; December 2008; and Clinical Laboratory Standards Institute: Performance Standards for Antimicrobial Susceptibility Testing M100-S20; Approved Standard-Twentieth Edition. Wayne, Pa.: CLSI; June 2010. The compounds of the present disclosure were tested for antimicrobial activity. The Compounds 1-32 were run against Eschericia colt (E. coli) strain ATCC25922 and against Staphylococcus aureus (S. aureus) 11540 strain using a standard microdilution assay to determine minimum inhibitory concentrations (MICs). […] It will be recognized by one skilled in the art that the compounds can be assessed against other bacterial organisms and that the presentation of data for activity against Eschericia colt and Staphylococcus aureus are illustrative and in no way is intended to limit the scope of the present disclosure. The compounds of the present disclosure can be assayed against a range of other microorganisms depending upon the performance activity desired to be gathered. Furthermore, the “+” and “−” representation and the selection of a cutoff value of 16 micrograms/mL is also illustrative and in no way is intended to limit the scope of the present disclosure.

The test system of a further experiment is E. coli strain ATCC25922. The experiment is described as above. Format: cell-based. Particulars: Escherichia coli. The protocol:
as §1

The term MIC denotes the smallest concentration in the dilution series that meets the test's criterion for growth inhibition. Read a low MIC as inhibition by little substance. `C[C@H](N)CCCc1cc(Cl)c(F)c(-c2cc3cn(-c4ccc(CN[C@@H](C)CCNC(=N)N)c(CC(=O)O)c4)c(=O)nc3[nH]2)c1` [Compound 1]: the MIC is no more than 16 µg/mL in experiment [1] and greater than 16 µg/mL in the experiment on E. coli strain ATCC25922.
On the same counts, the results for `CNC(=O)Cc1cc(-n2cc3cc(-c4cc(CCC[C@H](C)N)cc(Cl)c4F)[nH]c3nc2=O)ccc1CN[C@@H](C)CCNC(=N)N` [Compound 2] are no more than 16 µg/mL and no more than 16 µg/mL.
For `C[C@H](N)CCCc1cc(Cl)c(F)c(-c2cc3cn(-c4ccc([C@@H]5CNC[C@H](CCNC(=N)N)O5)cc4)c(=O)nc3[nH]2)c1` [Compound 5] the same measures were no more than 16 µg/mL and no more than 16 µg/mL.
On the same counts, the results for `C[C@H](N)CCCc1cc(Cl)c(F)c(-c2cc3cn(-c4ccc(CN[C@@H](C)CCNC(=N)N)c(S(C)(=O)=O)c4)c(=O)nc3[nH]2)c1` [Compound 6] are no more than 16 µg/mL and no more than 16 µg/mL.
As for `C[C@H](N)CCCc1cc(Cl)c(F)c(-c2cc3cn(-c4ccc(N5CCNC(CCNC(=N)N)C5)cc4)c(=O)nc3[nH]2)c1` (stereo partly drawn) [Compound 7], the MIC (in experiment [1]; in the experiment with E. coli strain ATCC25922) was no more than 16 µg/mL throughout.
Take `C[C@H](N)CCCc1cc(Cl)c(F)c(-c2cc3cn(-c4ccc(CN[C@@H](C)CCNC(=N)N)c([N+](=O)[O-])c4)c(=O)nc3[nH]2)c1` [Compound 8]: the minimal inhibitory concentration (MIC) (in experiment [1]; against E. coli strain ATCC25922) was no more than 16 µg/mL each time.
Consider `C[C@H](N)CCCc1cc(Cl)c(F)c(-c2cc3cn(-c4ccc(C(=O)N[C@@H](C)CCNC(=N)N)cc4)c(=O)nc3[nH]2)c1` [Compound 9], for which the MIC (in experiment [1]; in the experiment with E. coli strain ATCC25922) was no more than 16 µg/mL throughout.
On to `C[C@H](N)CCCc1cc(Cl)c(F)c(-c2cc3cn(-c4ccc(C(=O)N[C@@H](CO)CCNC(=N)N)cc4)c(=O)nc3[nH]2)c1` [Compound 10], for which the MIC (in experiment [1]; in the experiment on E. coli strain ATCC25922) was no more than 16 µg/mL throughout.
`C[C@H](N)CCCc1cc(Cl)c(F)c(-c2cc3cn(-c4ccc(CN[C@@H](C)CCNC(=N)N)c(N(C)C)c4)c(=O)nc3[nH]2)c1` [Compound 11]: the MIC (in experiment [1]; in the experiment on E. coli strain ATCC25922) was no more than 16 µg/mL each time.
Turning to `COCCOCc1cc(-n2cc3cc(-c4cc(CCC[C@H](C)N)cc(Cl)c4F)[nH]c3nc2=O)ccc1CN[C@@H](C)CCNC(=N)N` [Compound 12], the MIC (in experiment [1]; against E. coli strain ATCC25922) was no more than 16 µg/mL each time.
In the case of `C[C@H](N)CCCc1cc(Cl)c(F)c(-c2cc3cn(-c4ccc([C@@H]5CNC[C@@H](CCNC(=N)N)O5)cc4)c(=O)nc3[nH]2)c1` [Compound 14], the MIC (in experiment [1]; against E. coli strain ATCC25922) was no more than 16 µg/mL in each case.
Regarding `C[C@H](N)CCCc1cc(Cl)c(F)c(-c2cc3cn(-c4ccc(C(=O)N[C@H](CCNC(=N)N)CNc5ncc[nH]5)cc4)c(=O)nc3[nH]2)c1` [Compound 15], the MIC (in experiment [1]; with E. coli strain ATCC25922) was no more than 16 µg/mL throughout.
As for `C[C@H](N)CCCc1cc(Cl)c(F)c(-c2cc3cn(-c4ccc(CN[C@@H](C)CCNC(=N)N)c(N5CCOCC5)c4)c(=O)nc3[nH]2)c1` [Compound 16], the MIC (in experiment [1]; against E. coli strain ATCC25922) was no more than 16 µg/mL throughout.
For the compound `C[C@H](N)CCCc1cc(Cl)c(F)c(-c2cc3cn(-c4ccc([C@H]5CNC[C@@H](CCNC(=N)N)N5)cc4)c(=O)nc3[nH]2)c1` [Compound 17], the MIC (in experiment [1]; against E. coli strain ATCC25922) was no more than 16 µg/mL in each case.
Regarding `C[C@H](N)CCCc1cc(Cl)c(F)c(-c2cc3cn(-c4ccc([C@H]5CNC[C@H](CCNC(=N)N)N5)cc4)c(=O)nc3[nH]2)c1` [Compound 18], the MIC (in experiment [1]; against E. coli strain ATCC25922) was no more than 16 µg/mL each time.
For the compound `C[C@H](N)CCCc1cc(Cl)c(F)c(-c2cc3cn(-c4ccc(C(=O)N[C@H](CCNC(=N)N)CNC(=N)N)cc4)c(=O)nc3[nH]2)c1` [Compound 19], the MIC (in experiment [1]; in the experiment on E. coli strain ATCC25922) was no more than 16 µg/mL each time.
With `C=C[C@@H](CCNC(=N)N)NC(=O)c1ccc(-n2cc3cc(-c4cc(CCC[C@H](C)N)cc(Cl)c4F)[nH]c3nc2=O)cc1` [Compound 20], the MIC (in experiment [1]; against E. coli strain ATCC25922) was no more than 16 µg/mL in each case.
Regarding `C[C@H](N)CCCc1cc(Cl)c(F)c(-c2cc3cn(-c4ccc(C(=O)N[C@H](CCNC(=N)N)CNc5ccccn5)cc4)c(=O)nc3[nH]2)c1` [Compound 21], the MIC (in experiment [1]; with E. coli strain ATCC25922) was no more than 16 µg/mL each time.
`C[C@H](N)CCCc1cc(Cl)c(F)c(-c2cc3cn(-c4ccc([C@@H]5CNC[C@H](CCNC(=N)N)N5)cc4)c(=O)nc3[nH]2)c1` [Compound 22]: the MIC (in experiment [1]; in the experiment on E. coli strain ATCC25922) was no more than 16 µg/mL throughout.
Regarding `C[C@H](N)CCCc1cc(Cl)c(F)c(-c2cc3cn(-c4ccc([C@@H]5CNC[C@@H](CCNC(=N)N)N5)cc4)c(=O)nc3[nH]2)c1` [Compound 23], the MIC (in experiment [1]; against E. coli strain ATCC25922) was no more than 16 µg/mL in each case.
Consider `CSC[C@@H](CCNC(=N)N)NCc1ccc(-n2cc3cc(-c4cc(CCC[C@H](C)N)cc(Cl)c4F)[nH]c3nc2=O)cc1` [Compound 24], for which the MIC (in experiment [1]; in the experiment with E. coli strain ATCC25922) was no more than 16 µg/mL in each case.
Take `C[C@H](N)CCCc1cc(Cl)c(F)c(-c2cc3cn(-c4ccc(C(=O)N[C@@H](CN)CCNC(=N)N)cc4)c(=O)nc3[nH]2)c1` [Compound 25]: the MIC (in experiment [1]; against E. coli strain ATCC25922) was no more than 16 µg/mL in each case.
Regarding `C[C@H](NCCCNC(=N)N)c1ccc(-n2cc3cc(-c4cc(CCC[C@@H](N)C(F)(F)F)cc(Cl)c4F)[nH]c3nc2=O)cc1` [Compound 26], the MIC in experiment [1] was no more than 16 µg/mL; in the experiment with E. coli strain ATCC25922, greater than 16 µg/mL.
On the same counts, the results for `C[C@H](N)CCCc1cc(Cl)c(F)c(-c2cc3cn(-c4ccc([C@@H](NCCCNC(=N)N)C(F)(F)F)cc4)c(=O)nc3[nH]2)c1` [Compound 27] are no more than 16 µg/mL and no more than 16 µg/mL.
On the same counts, the results for `C[C@H](N)CCCc1cc(Cl)c(F)c(-c2cc3cn(-c4ccc([C@@H](NCCCNC(=N)N)C(F)F)cc4)c(=O)nc3[nH]2)c1` [Compound 28] are no more than 16 µg/mL and no more than 16 µg/mL.
For `N=C(N)NCC[C@@H]1CSC[C@@H](c2ccc(-n3cc4cc(-c5cc(CCC[C@@H](N)C6CC6)cc(Cl)c5F)[nH]c4nc3=O)cc2)N1` [Compound 29] the same measures were no more than 16 µg/mL and no more than 16 µg/mL.
Turning to `C[C@H](N)CCCc1cc(Cl)c(F)c(-c2cc3cn(-c4ccc(CO[C@H](CCNC(=N)N)CNC(=N)N)c(F)c4)c(=O)nc3[nH]2)c1` [Compound 30], the MIC (in experiment [1]; with E. coli strain ATCC25922) was no more than 16 µg/mL each time.
`CSc1cc(-n2cc3cc(-c4cc(CCC[C@H](C)N)cc(Cl)c4F)[nH]c3nc2=O)ccc1CO[C@H](CCNC(=N)N)CNC(=N)N` [Compound 31]: the MIC (in experiment [1]; in the experiment with E. coli strain ATCC25922) was no more than 16 µg/mL in each case.
With `COc1cc(-n2cc3cc(-c4cc(CCC[C@H](C)N)cc(Cl)c4F)[nH]c3nc2=O)ccc1CO[C@H](CCNC(=N)N)CNC(=N)N` [Compound 32], the MIC (in experiment [1]; in the experiment on E. coli strain ATCC25922) was no more than 16 µg/mL in each case.
For the compound `C[C@H](N)CCCc1cc(Cl)c(F)c(-c2cc3cn(-c4cc(F)c(CO[C@H](CCNC(=N)N)CNC(=N)N)c(F)c4)c(=O)nc3[nH]2)c1` [Compound 56], the MIC (in experiment [1]; in the experiment with E. coli strain ATCC25922) was no more than 16 µg/mL in each case.
